Laboratory results from patent US7927613B2, “Pharmaceutical co-crystal compositions” (University of South Florida, priority 2002, dated 2011).

Key:
Dissolution profile = assay type: physicochemical; details: vs. itraconazole free base (FIG. 28)
From the text: In another aspect of the present invention, the dissolution profile of the API is modulated whereby the aqueous dissolution rate or the dissolution rate in simulated gastric fluid or in simulated intestinal fluid, or in a solvent or plurality of solvents is increased. Dissolution rate is the rate at which API solids dissolve in a dissolution medium. For APIs whose absorption rates are faster than the dissolution rates (e.g., steroids), the rate-limiting step in the absorption process is often the dissolution rate. Because of a limited residence time at the absorption site, APIs that are not dissolved before they are removed from intestinal absorption site are considered useless. Therefore, the rate of dissolution has a major impact on the performance of APIs that are poorly soluble. Because of this factor, the dissolution rate of APIs in solid dosage forms is an important, routine, quality control parameter used in the API manufacturing process. […] For rapid API absorption, Cs−C is approximately equal to Cs The dissolution rate of APIs may be measured by conventional means known in the art. […] Conditions under which the dissolution rate is measured is the same as discussed above The increase in dissolution may be further specified by the time the composition remains supersaturated before reaching equilibrium solubility.

dissolution profile (Dissolution profile)	melting point [°C]	Compound
modulated dissolution profile	–	itraconazole and malic acid [itraconazole:malic acid]
–	173 to 174	CCOc1ccc(NC(N)=O)cc1 [4-ethoxyphenyl urea]
